Earlier results on 2 compounds are cited in patent US20210361620A1 (Biosential, Inc., priority 2018, published 2021).

The structures appear in SMILES notation.

For data set [1], the system named is subjects with mild insomnia or longer-than-average sleep latency. The following applies: for effect on sleep (hypnotic effect): ingestion of a sufficient quantity.
Another data set has as its system humans. The following applies: for potential side effects of supplementation: tryptophan: dose not given, melatonin: 1 mg to 5 mg, uncommon.
A further data set has as its target serum albumin (Homo sapiens, UniProt P02768). The following applies: after ingestion and absorption.

Sequence of serum albumin (P02768 25-609): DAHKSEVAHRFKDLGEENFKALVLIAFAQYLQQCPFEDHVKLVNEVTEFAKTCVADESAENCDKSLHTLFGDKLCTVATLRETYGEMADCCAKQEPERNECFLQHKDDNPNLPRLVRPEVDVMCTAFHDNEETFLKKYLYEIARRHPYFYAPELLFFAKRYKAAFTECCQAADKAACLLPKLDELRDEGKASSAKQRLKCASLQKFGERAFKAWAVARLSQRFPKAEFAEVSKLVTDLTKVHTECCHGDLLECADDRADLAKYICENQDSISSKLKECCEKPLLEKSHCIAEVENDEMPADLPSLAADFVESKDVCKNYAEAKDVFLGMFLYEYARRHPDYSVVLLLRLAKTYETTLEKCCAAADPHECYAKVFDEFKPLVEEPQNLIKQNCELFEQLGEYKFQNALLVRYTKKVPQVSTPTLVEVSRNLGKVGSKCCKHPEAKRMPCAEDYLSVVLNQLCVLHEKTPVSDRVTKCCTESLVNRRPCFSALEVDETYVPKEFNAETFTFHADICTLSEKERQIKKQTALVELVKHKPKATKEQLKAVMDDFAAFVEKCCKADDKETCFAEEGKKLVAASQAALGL

On to `COc1ccc2[nH]cc(CCNC(C)=O)c2c1` [melatonin], for which the “effect on sleep (hypnotic effect)” value in data set [1] was “reduce sleep latency, increase sleep duration and efficiency, and regulate the sleep-wake cycle”. For the same compound, in the data set with rats, the “effect on glucose metabolism” value is “antihyperglycemic effect”. Besides, the “side effects of supplementation during the day” value in the data set on humans (daytime use) is “sleepiness and hypothermia”. The “potential side effects of supplementation” value with humans was “drowsiness, headache, dizziness and nausea”.

In the case of `N[C@@H](Cc1c[nH]c2ccccc12)C(=O)O` [tryptophan], the “effect on sleep architecture at very high dose” value in data set [1] (doses above 12,000 mg) is given as “disrupt sleep architecture”. For the same compound, the “effect on sleep (hypnotic effect)” value in data set [1] is reported as “consistently reduces sleep latency”. Moreover, on serum albumin, the “fraction bound to serum albumin in the circulation” value was “approximately 80%” and the “fraction circulating as free tryptophan” value is 20%. Moreover, in the data set on humans, the “potential side effects of supplementation” value was “drowsiness and minimal weight loss”.
